Results taken from ChEMBL document CHEMBL5380870, “Halo Library, a Tool for Rapid Identification of Ligand Binding Sites on Proteins Using Crystallographic Fragment Screening” (J Med Chem, 2023).

How the values were obtained:
[1] = test system: Human immunodeficiency virus type 1 reverse transcriptase (Human immunodeficiency virus 1), Q72547 [UNDEFINED MUTATION]; settings: time 140.0 min, at 5 mM
[2] = molecular target: Human immunodeficiency virus type 1 reverse transcriptase (Human immunodeficiency virus 1, UniProt Q72547); test: Inhibition of HIV-1 reverse transcriptase RT52A mutant using ABTS as substrate preincubated with compound for 1 hr followed by template-primer addition for 1 hr and measured 20 mins after substrate addition by absorbance based Roche colorimetric assay

For O=c1[nH]cnc2cccc(F)c12, which inhibition [1] is on record?
The inhibition was 55%.

For NCCc1c(F)cccc1Cl, which IC50 [2] is on record?
Its IC50 is 2100 µM.

What about the inhibition [1] of the same compound?
Its inhibition is 99%.

How did the inhibition [1] turn out when Cc1c(CO)cnn1-c1ccc(F)cc1 was run?
Its inhibition is 55%.

With O=C(O)c1cc2cc(F)ccc2[nH]1 [5-FLUOROINDOLE-2-CARBOXYLIC ACID] as the compound, how does the IC50 [2] read?
The IC50 was 2900 µM.

And the inhibition [1]?
The inhibition was 99%.

How did the inhibition [1] turn out when NCc1cccc(Br)c1 was run?
Its inhibition is 96%.

Which inhibition [1] does the source give for Oc1ccc(C(F)(F)F)cn1 here?
Its inhibition is 35%.

For CNc1ccc(C(F)(F)F)cc1N, which inhibition [1] is on record?
The inhibition was 35%.

How did the IC50 [2] turn out when Nc1ccncc1Br was run?
The IC50 was 2100 µM.

What about the inhibition [1] of the same compound?
The inhibition was 99%.

How did the inhibition [1] turn out when N#Cc1c(N)cccc1F was run?
Its inhibition is 75%.

How did the inhibition [1] turn out when Brc1cn[nH]c1 was run?
The inhibition was 22%.

How did the inhibition [1] turn out when Ic1cn[nH]c1 was run?
The inhibition was 24%.
